# Assay results taken from patent US20150218212A1, “FLUORINATED EPOXYKETONE-BASED TETRAPEPTIDE COMPOUNDS AND USES THEREOF AS PROTEASOME INHIBITORS” (FLUORINOV PHARMA INC., priority 2012, published 2015).
# What was measured:
# [1] = system: KMS-11; experiment: Cell viability (MTS) assay, KMS-11; type: cell-based; conditions: Homo sapiens; KMS-11, MTS, 72 hours, mean ± standard deviation
# Protocol: Human multiple myeloma cell lines 8226, H929, JJN3, KMH11, KMS11, KMS18, LP1, MM1S, OPM2 and U266 were grown in Iscove modified Dulbecco's medium (IMDM). Human leukemia cell lines K562, OCI-AML2 and U937 were cultured in RPMI-1640 medium. Primary peripheral blood mononuclear cells were isolated from multiple myeloma patients by Ficoll density gradient centrifugation and bone marrow aspirates were obtained from multiple myeloma patients at the Princess Margaret Cancer Centre of the University Health Network (UHN; Toronto, ON, Canada). Primary cells were cultured in IMDM. The collection and use of human tissue for this study was approved by the UHN institutional ethics review board. All cell culture media were obtained from the Ontario Cancer Institute Tissue Culture Media Facility (Toronto, ON, Canada) and were supplemented with 10% fetal calf serum, […] (Hyclone, Logan, Utah). All cells were grown in a humidified incubator at 37° C. with 5% CO2.
# Cellular viability was primarily assessed by 3-(4,5-dimethylthiazol-2-yl)-5-(3-carboxymethoxyphenyl)-2-(4-sulfophenyl)-2H-tetrazolium (MTS) assay according to the manufacturer's instructions (Promega; Madison, Wis.). Cells were first seeded at a density of 10,000 cells per well in tissue culture-treated 96-well plates. Two hours after seeding, cells were treated with compounds for 72 hours at concentrations as indicated. As a control, cells were treated with DMSO alone in every assay plate. Following treatment and the MTS assay, cell viability was independently confirmed by reading the optical density (O.D.) at 490 nm and by exclusion of trypan blue stain (Invitrogen; Burlington, ON, Canada). The viability of primary mononuclear cells was determined by staining with Annexin V.
# Table 8 summarizes the data of representative compounds of Formula I for cell viability and CT-L proteasome activity with OCI-AML-2 and KMS-11 cell lines.
# [2] = system: SR; experiment: NCI screening panel, SR (Leukemia); type: cell-based, human
# Protocol: (§1) Representative compounds of Formula I were screened using the National Cancer Institute (NCI) screening panel, which consists of a panel of human tumor cell lines, representing leukemia, melanoma, and cancers of the lung, colon, ovary, breast, prostate and renal system.
# (§2) After 24 h, two plates of each cell line are fixed in situ with TCA, to represent a measurement of the cell population for each cell line at the time of drug addition (Tz). Experimental drugs are solubilised in dimethyl sulfoxide at 400-fold the desired final maximum test concentration and stored frozen prior to use. At the time of drug addition, an aliquot of frozen concentrate is thawed and diluted to twice the desired final maximum test concentration with complete medium containing 50 μg/mL gentamicin. Additional four, 10-fold or ½ log serial dilutions are made to provide a total of five drug concentrations plus control. Aliquots of 100 μl of these different drug dilutions are added to the appropriate microtiter wells already containing 100 μl of medium, resulting in the required final drug concentrations.
# (§3) Following drug addition, the plates are incubated for an additional 48 h at 37° C., 5% CO2, 95% air, and 100% relative humidity. For adherent cells, the assay is terminated by the addition of cold TCA (trichloroacetic acid). Cells are fixed in situ by the gentle addition of 50 μl of cold 50% (w/v) TCA (final concentration, 10% TCA) and incubated for 60 minutes at 4° C. The supernatant is discarded, and the plates are washed five times with tap water and air dried. Sulforhodamine B (SRB) solution (100 μl) at 0.4% (w/v) in 1% acetic acid is added to each well, and plates are incubated for 10 minutes at room temperature. After staining, unbound dye is removed by washing five times with 1% acetic acid and the plates are air dried. Bound stain is subsequently solubilised with 10 mM trizma base, and the absorbance is read on an automated plate reader at a wavelength of 515 nm. For suspension cells, the methodology is the same except that the assay is terminated by fixing settled cells at the bottom of the wells by gently adding 50 μl of 80% TCA (final concentration, 16% TCA). Using the seven absorbance measurements [time zero, (Tz), control growth, (C), and test growth in the presence of drug at the five concentration levels (Ti)], the percentage growth is calculated at each of the drug concentrations levels. Percentage growth inhibition is calculated as: [(Ti−Tz)/(C−Tz)]×100 for concentrations for which Ti>/=Tz and [(Ti−Tz)/Tz]×100 for concentrations for which Ti<Tz.
# (§4) Three dose response parameters are calculated for each experimental agent. Growth inhibition of 50% (GI50) is calculated from [(Ti−Tz)/(C−Tz)]×100=50, which is the drug concentration resulting in a 50% reduction in the net protein increase (as measured by SRB staining) in control cells during the drug incubation. The drug concentration resulting in total growth inhibition (TGI) is calculated from Ti=Tz. The LC50 (concentration of drug resulting in a 50% reduction in the measured protein at the end of the drug treatment as compared to that at the beginning) indicating a net loss of cells following treatment is calculated from [(Ti−Tz)/Tz]×100=−50. Values are calculated for each of these three parameters if the level of activity is reached. However, if the effect is not reached or is exceeded, the value for that parameter is expressed as greater or less than the maximum or minimum concentration tested.
# [3] = system: NCI-H460; experiment: NCI screening panel, NCI-H460 (Non-Small Cell Lung Cancer); type: cell-based, human
# Protocol: as §1, §2, §3, §4
# [4] = system: KM12; experiment: NCI screening panel, KM12 (Colon Cancer); type: cell-based, human
# Protocol: as §1, §2, §3, §4
# [5] = system: SF-295; experiment: NCI screening panel, SF-295 (CNS Cancer); type: cell-based, human
# Protocol: as §1, §2, §3, §4
# [6] = system: LOX IMVI; experiment: NCI screening panel, LOX IMVI (Melanoma); type: cell-based, human
# Protocol: as §1, §2, §3, §4
# [7] = system: MALME-3M; experiment: NCI screening panel, MALME-3M (Melanoma); type: cell-based, human
# Protocol: as §1, §2, §3, §4
# [8] = system: UACC-62; experiment: NCI screening panel, UACC-62 (Melanoma); type: cell-based, human
# Protocol: as §1, §2, §3, §4
# [9] = system: CAKI-1; experiment: NCI screening panel, CAKI-1 (Renal Cancer); type: cell-based, human
# Protocol: as §1, §2, §3, §4
# [10] = system: MCF7; experiment: NCI screening panel, MCF7 (Breast Cancer); type: cell-based, human
# Protocol: as §1, §2, §3, §4
# [11] = system: MDA-MB-231/ATCC; experiment: NCI screening panel, MDA-MB-231/ATCC (Breast Cancer); type: cell-based, human
# Protocol: as §1, §2, §3, §4
Compound,IC50 [1] [nM],Log10GI50 [2],Log10TGI50 [2],Log10GI50 [3],Log10LC50 [3],Log10TGI50 [3],Log10GI50 [4],Log10LC50 [4],Log10TGI50 [4],Log10GI50 [5],Log10LC50 [5],Log10TGI50 [5],Log10GI50 [6],Log10LC50 [6],Log10TGI50 [6],Log10GI50 [7],Log10LC50 [7],Log10TGI50 [7],Log10GI50 [8],Log10LC50 [8],other results
"CC(C)C[C@H](NC(=O)[C@H](COC(F)F)NC(=O)[C@H](COC(F)F)NC(=O)[C@H](CCc1ccccc1)NC(=O)CN1CCOCC1)C(=O)[C@@]1(C)CO1 [Example 7, (2S)-N-[(1S)-1-(difluoromethoxymethyl)-2-[[(1S)-1-(difluoromethoxymethyl)-2-[[(1S)-3-methyl-1-[(2R)-2-methyloxirane-2-carbo-nyl]butyl]amino]-2-oxo-ethyl]amino]-2-oxo-ethyl]-2-[(2-morpholinoacetyl)amino]-4-phenyl-butanamide]",19.8 ± 0.532,−7.64,>−4.00,−7.28,>−4.00,−6.50,−7.78,−7.11,−7.45,−7.60,−6.15,−6.97,−7.99,−7.13,−7.56,−7.39,>−4.00,−6.75,−7.49,−4.37,Log10LC50 [2]: >−4.00; Log10TGI50 [8]: −6.73; Log10GI50 [9]: −6.40; Log10LC50 [9]: >−4.00; Log10TGI50 [9]: −5.62; Log10GI50 [10]: <−8.00; Log10LC50 [10]: >−4.00; Log10TGI50 [10]: >−4.00; Log10GI50 [11]: −7.64; Log10LC50 [11]: −4.92; Log10TGI50 [11]: −7.14
"CC(C)C[C@H](NC(=O)[C@H](Cc1ccccc1)NC(=O)[C@H](COC(F)F)NC(=O)[C@H](COC(F)F)NC(=O)CN1CCOCC1)C(=O)[C@@]1(C)CO1 [Example 11, (2S)-2-[[(2S)-3-(difluoromethoxy)-2-[[(2S)-3-(difluoromethoxy)-2-[(2-morpholinoacetyl)-amino]propanoyl]amino]propanoyl]amino]-N-[(1S)-3-methyl-1-[(2R)-2-methyloxirane-2-carbonyl]butyl]-3-phenyl-propanamide]",24.3 ± 0.568,−7.82,>−4.00,−7.29,−4.85,−6.51,−7.73,−7.07,−7.40,−5.96,−5.17,−5.56,−7.79,−7.09,−7.44,−7.14,>−4.00,−6.30,−7.52,>−4.00,Log10LC50 [2]: >−4.00; Log10TGI50 [8]: −6.73; Log10GI50 [9]: −6.39; Log10LC50 [9]: >−4.00; Log10TGI50 [9]: −5.55; Log10GI50 [10]: <−8.00; Log10LC50 [10]: >−4.00; Log10TGI50 [10]: >−4.00; Log10GI50 [11]: −7.56; Log10LC50 [11]: −4.39; Log10TGI50 [11]: −6.94
"CC(C)C[C@H](NC(=O)[C@H](COC(F)F)NC(=O)[C@H](COC(F)F)NC(=O)[C@H](COC(F)F)NC(=O)CN1CCOCC1)C(=O)[C@@]1(C)CO1 [Example 17, (2S)-3-(difluoromethoxy)-N-[(1S)-1-(difluoromethoxymethyl)-2-[[(1S)-1-(difluoro-methoxymethyl)-2-[[(1S)-3-methyl-1-[(2R)-2-methyloxirane-2-carbonyl]butyl]amino]-2-oxo-ethyl]amino]-2-oxo-ethyl]-2-[(2-mor-pholinoacetyl)amino]-propanamide]",166 ± 13.4,−7.27,>−4.00,−6.50,−4.60,−5.88,−7.34,−6.24,−6.73,−6.82,−5.37,−6.20,−7.36,−6.36,−6.81,−6.76,>−4.00,−6.09,−7.14,−5.39,Log10TGI50 [8]: −6.42; Log10GI50 [9]: −5.54; Log10LC50 [9]: >−4.00; Log10TGI50 [9]: −4.81; Log10GI50 [10]: −7.57; Log10LC50 [10]: >−4.00; Log10TGI50 [10]: >−4.00; Log10GI50 [11]: −6.87; Log10LC50 [11]: −4.25; Log10TGI50 [11]: −6.10
